Legend:
Assay in all cases: relative viability (nuclei count vs DMSO), 5 days (fraction); higher = more cells survive
[1] = compound: Nc1ccn([C@@H]2O[C@H](CO)[C@@H](O)C2(F)F)c(=O)n1 [Gemcitabine] + CC(C)C[C@H](NC(=O)[C@H](Cc1ccccc1)NC(=O)c1cnccn1)B(O)O [Bortezomib] (partner 0.002 µM)
Summary of the method: (§1)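 Lung cancer cell lines, seeded in 1536-well plates, were treated the following day by pin tool with a single drug or with five library-drug doses (not always all listed) in √10 steps on top of a fixed anchor-drug dose. Cells were fixed and nuclei stained in one step after 5 days, and nuclei were counted. Relative viability is the nuclei count for treated wells divided by that for vehicle wells, reported as medians of duplicate plates.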

[2] = compound: Nc1ccn([C@@H]2O[C@H](CO)[C@@H](O)C2(F)F)c(=O)n1 [Gemcitabine] + CS(=O)(=O)CCNCc1ccc(-c2ccc3ncnc(Nc4ccc(OCc5cccc(F)c5)c(Cl)c4)c3c2)o1 [Lapatinib] (partner 2 µM)
Summary of the method: as §1

[3] = compound: Nc1ccn([C@@H]2O[C@H](CO)[C@@H](O)C2(F)F)c(=O)n1 [Gemcitabine] + NC(=O)Nc1cc(-c2cccc(F)c2)sc1C(=O)N[C@H]1CCCNC1 [AZD7762] (partner 0.2 µM)
Summary of the method: as §1

[4] = compound: Nc1ccn([C@@H]2O[C@H](CO)[C@@H](O)C2(F)F)c(=O)n1 [Gemcitabine] + Nc1ncn([C@H]2C[C@H](O)[C@@H](CO)O2)c(=O)n1 [Decitabine] (partner 2 µM)
Summary of the method: as §1

EMC-BAC-2
relative viability ([1]; first compound 0.001 µM): 1.09
relative viability ([1]; first compound 0.003162 µM): 1.1
relative viability ([1]; first compound 0.01 µM): 1.08
relative viability ([1]; first compound 0.03162 µM): 0.161
relative viability ([1]; first compound 0.1 µM): 0.169
relative viability ([2]; first compound 0.001 µM): 0.923
relative viability ([2]; first compound 0.003162 µM): 0.979
relative viability ([2]; first compound 0.01 µM): 0.86
relative viability ([2]; first compound 0.03162 µM): 0.198
relative viability ([2]; first compound 0.1 µM): 0.159
relative viability ([3]; first compound 0.001 µM): 1.18
relative viability ([3]; first compound 0.003162 µM): 0.723
relative viability ([3]; first compound 0.01 µM): 0.224
relative viability ([3]; first compound 0.03162 µM): 0.301
relative viability ([3]; first compound 0.1 µM): 0.232
relative viability ([4]; first compound 0.001 µM): 0.965
relative viability ([4]; first compound 0.003162 µM): 0.936
relative viability ([4]; first compound 0.01 µM): 0.726
relative viability ([4]; first compound 0.03162 µM): 0.356
relative viability ([4]; first compound 0.1 µM): 0.262

EPLC-272H
relative viability ([1]; first compound 0.001 µM): 0.87
relative viability ([1]; first compound 0.003162 µM): 0.786
relative viability ([1]; first compound 0.01 µM): 0.419
relative viability ([1]; first compound 0.03162 µM): 0.358
relative viability ([1]; first compound 0.1 µM): 0.121
relative viability ([2]; first compound 0.001 µM): 1.08
relative viability ([2]; first compound 0.003162 µM): 0.257
relative viability ([2]; first compound 0.01 µM): 0.664
relative viability ([2]; first compound 0.03162 µM): 0.19
relative viability ([2]; first compound 0.1 µM): 0.0848
relative viability ([3]; first compound 0.001 µM): 0.19
relative viability ([3]; first compound 0.003162 µM): 0.141
relative viability ([3]; first compound 0.01 µM): 0.0918
relative viability ([3]; first compound 0.03162 µM): 0.101
relative viability ([3]; first compound 0.1 µM): 0.0686
relative viability ([4]; first compound 0.001 µM): 0.389
relative viability ([4]; first compound 0.003162 µM): 0.353
relative viability ([4]; first compound 0.01 µM): 0.305
relative viability ([4]; first compound 0.03162 µM): 0.224
relative viability ([4]; first compound 0.1 µM): 0.0962

H3255
relative viability ([1]; first compound 0.001 µM): 0.848
relative viability ([1]; first compound 0.003162 µM): 0.547
relative viability ([1]; first compound 0.01 µM): 0.576
relative viability ([1]; first compound 0.03162 µM): 0.19
relative viability ([1]; first compound 0.1 µM): 0.199
relative viability ([2]; first compound 0.001 µM): 0.223
relative viability ([2]; first compound 0.003162 µM): 0.235
relative viability ([2]; first compound 0.01 µM): 0.221
relative viability ([2]; first compound 0.03162 µM): 0.138
relative viability ([2]; first compound 0.1 µM): 0.159
relative viability ([3]; first compound 0.001 µM): 1
relative viability ([3]; first compound 0.003162 µM): 0.604
relative viability ([3]; first compound 0.01 µM): 0.37
relative viability ([3]; first compound 0.03162 µM): 0.203
relative viability ([3]; first compound 0.1 µM): 0.248
relative viability ([4]; first compound 0.001 µM): 0.884
relative viability ([4]; first compound 0.003162 µM): 0.374
relative viability ([4]; first compound 0.01 µM): 0.42
relative viability ([4]; first compound 0.03162 µM): 0.238
relative viability ([4]; first compound 0.1 µM): 0.15

HARA
relative viability ([1]; first compound 0.001 µM): 1.15
relative viability ([1]; first compound 0.003162 µM): 1.22
relative viability ([1]; first compound 0.01 µM): 1.04
relative viability ([1]; first compound 0.03162 µM): 0.695
relative viability ([1]; first compound 0.1 µM): 0.1
relative viability ([2]; first compound 0.001 µM): 0.77
relative viability ([2]; first compound 0.003162 µM): 0.836
relative viability ([2]; first compound 0.01 µM): 0.794
relative viability ([2]; first compound 0.03162 µM): 0.604
relative viability ([2]; first compound 0.1 µM): 0.137
relative viability ([3]; first compound 0.001 µM): 0.328
relative viability ([3]; first compound 0.003162 µM): 0.241
relative viability ([3]; first compound 0.01 µM): 0.131
relative viability ([3]; first compound 0.03162 µM): 0.132
relative viability ([3]; first compound 0.1 µM): 0.117
relative viability ([4]; first compound 0.001 µM): 0.593
relative viability ([4]; first compound 0.003162 µM): 0.702
relative viability ([4]; first compound 0.01 µM): 0.373
relative viability ([4]; first compound 0.03162 µM): 0.279
relative viability ([4]; first compound 0.1 µM): 0.131

HCC-15
relative viability ([1]; first compound 0.001 µM): 1.06
relative viability ([1]; first compound 0.003162 µM): 0.986
relative viability ([1]; first compound 0.01 µM): 0.931
relative viability ([1]; first compound 0.03162 µM): 0.915
relative viability ([1]; first compound 0.1 µM): 0.255
relative viability ([2]; first compound 0.001 µM): 0.918
relative viability ([2]; first compound 0.003162 µM): 0.88
relative viability ([2]; first compound 0.01 µM): 0.829
relative viability ([2]; first compound 0.03162 µM): 0.55
relative viability ([2]; first compound 0.1 µM): 0.121
relative viability ([3]; first compound 0.001 µM): 1.03
relative viability ([3]; first compound 0.003162 µM): 1.21
relative viability ([3]; first compound 0.01 µM): 1.18
relative viability ([3]; first compound 0.03162 µM): 0.129
relative viability ([3]; first compound 0.1 µM): 0.113
relative viability ([4]; first compound 0.001 µM): 0.622
relative viability ([4]; first compound 0.003162 µM): 0.67
relative viability ([4]; first compound 0.01 µM): 0.612
relative viability ([4]; first compound 0.03162 µM): 0.226
relative viability ([4]; first compound 0.1 µM): 0.107

HCC-44
relative viability ([1]; first compound 0.001 µM): 0.895
relative viability ([1]; first compound 0.003162 µM): 0.874
relative viability ([1]; first compound 0.01 µM): 0.701
relative viability ([1]; first compound 0.03162 µM): 0.393
relative viability ([1]; first compound 0.1 µM): 0.131
relative viability ([2]; first compound 0.001 µM): 1.01
relative viability ([2]; first compound 0.003162 µM): 0.98
relative viability ([2]; first compound 0.01 µM): 0.897
relative viability ([2]; first compound 0.03162 µM): 0.477
relative viability ([2]; first compound 0.1 µM): 0.17
relative viability ([3]; first compound 0.001 µM): 0.971
relative viability ([3]; first compound 0.003162 µM): 1.03
relative viability ([3]; first compound 0.01 µM): 0.942
relative viability ([3]; first compound 0.03162 µM): 0.226
relative viability ([3]; first compound 0.1 µM): 0.271
relative viability ([4]; first compound 0.001 µM): 0.936
relative viability ([4]; first compound 0.003162 µM): 0.918
relative viability ([4]; first compound 0.01 µM): 0.901
relative viability ([4]; first compound 0.03162 µM): 0.845
relative viability ([4]; first compound 0.1 µM): 0.738

HCC-78
relative viability ([1]; first compound 0.001 µM): 0.593
relative viability ([1]; first compound 0.003162 µM): 0.314
relative viability ([1]; first compound 0.01 µM): 0.335
relative viability ([1]; first compound 0.03162 µM): 0.302
relative viability ([1]; first compound 0.1 µM): 0.193
relative viability ([2]; first compound 0.001 µM): 0.695
relative viability ([2]; first compound 0.003162 µM): 0.485
relative viability ([2]; first compound 0.01 µM): 0.146
relative viability ([2]; first compound 0.03162 µM): 0.272
relative viability ([2]; first compound 0.1 µM): 0.168
relative viability ([3]; first compound 0.001 µM): 0.477
relative viability ([3]; first compound 0.003162 µM): 0.303
relative viability ([3]; first compound 0.01 µM): 0.186
relative viability ([3]; first compound 0.03162 µM): 0.214
relative viability ([3]; first compound 0.1 µM): 0.277
relative viability ([4]; first compound 0.001 µM): 0.622
relative viability ([4]; first compound 0.003162 µM): 0.651
relative viability ([4]; first compound 0.01 µM): 0.367
relative viability ([4]; first compound 0.03162 µM): 0.343
relative viability ([4]; first compound 0.1 µM): 0.268

HCC-366
relative viability ([1]; first compound 0.001 µM): 1.05
relative viability ([1]; first compound 0.003162 µM): 1.01
relative viability ([1]; first compound 0.01 µM): 0.425
relative viability ([1]; first compound 0.03162 µM): 0.0213
relative viability ([1]; first compound 0.1 µM): 0.0123
relative viability ([2]; first compound 0.001 µM): 0.954
relative viability ([2]; first compound 0.003162 µM): 1.19
relative viability ([2]; first compound 0.01 µM): 0.546
relative viability ([2]; first compound 0.03162 µM): 0.0287
relative viability ([2]; first compound 0.1 µM): 0.0142
relative viability ([3]; first compound 0.001 µM): 0.27
relative viability ([3]; first compound 0.003162 µM): 0.16
relative viability ([3]; first compound 0.01 µM): 0.0204
relative viability ([3]; first compound 0.03162 µM): 0.0203
relative viability ([3]; first compound 0.1 µM): 0.0152
relative viability ([4]; first compound 0.001 µM): 0.329
relative viability ([4]; first compound 0.003162 µM): 0.331
relative viability ([4]; first compound 0.01 µM): 0.0609
relative viability ([4]; first compound 0.03162 µM): 0.0417
relative viability ([4]; first compound 0.1 µM): 0.0234
